Measured values: ChEMBL document CHEMBL3621135 (ACS Med Chem Lett, 2015)

Columns and labels:
[1] = target: Tyrosine-protein kinase JAK1 (Homo sapiens, UniProt P23458); experiment: Inhibition of recombinant JAK1 (unknown origin) using 5-FAM-KKKKEEIYFFFG-OH substrate and ATP incubated for 180 mins by […] method
[2] = target: T1, Tyrosine-protein kinase JAK3 (Homo sapiens, UniProt P52333); experiment: Inhibition of recombinant JAK3 (unknown origin) using 5-FAM-KKKKEEIYFFFG-OH substrate and ATP incubated for 180 mins by […] method
T1 sequence (P52333 whole entry): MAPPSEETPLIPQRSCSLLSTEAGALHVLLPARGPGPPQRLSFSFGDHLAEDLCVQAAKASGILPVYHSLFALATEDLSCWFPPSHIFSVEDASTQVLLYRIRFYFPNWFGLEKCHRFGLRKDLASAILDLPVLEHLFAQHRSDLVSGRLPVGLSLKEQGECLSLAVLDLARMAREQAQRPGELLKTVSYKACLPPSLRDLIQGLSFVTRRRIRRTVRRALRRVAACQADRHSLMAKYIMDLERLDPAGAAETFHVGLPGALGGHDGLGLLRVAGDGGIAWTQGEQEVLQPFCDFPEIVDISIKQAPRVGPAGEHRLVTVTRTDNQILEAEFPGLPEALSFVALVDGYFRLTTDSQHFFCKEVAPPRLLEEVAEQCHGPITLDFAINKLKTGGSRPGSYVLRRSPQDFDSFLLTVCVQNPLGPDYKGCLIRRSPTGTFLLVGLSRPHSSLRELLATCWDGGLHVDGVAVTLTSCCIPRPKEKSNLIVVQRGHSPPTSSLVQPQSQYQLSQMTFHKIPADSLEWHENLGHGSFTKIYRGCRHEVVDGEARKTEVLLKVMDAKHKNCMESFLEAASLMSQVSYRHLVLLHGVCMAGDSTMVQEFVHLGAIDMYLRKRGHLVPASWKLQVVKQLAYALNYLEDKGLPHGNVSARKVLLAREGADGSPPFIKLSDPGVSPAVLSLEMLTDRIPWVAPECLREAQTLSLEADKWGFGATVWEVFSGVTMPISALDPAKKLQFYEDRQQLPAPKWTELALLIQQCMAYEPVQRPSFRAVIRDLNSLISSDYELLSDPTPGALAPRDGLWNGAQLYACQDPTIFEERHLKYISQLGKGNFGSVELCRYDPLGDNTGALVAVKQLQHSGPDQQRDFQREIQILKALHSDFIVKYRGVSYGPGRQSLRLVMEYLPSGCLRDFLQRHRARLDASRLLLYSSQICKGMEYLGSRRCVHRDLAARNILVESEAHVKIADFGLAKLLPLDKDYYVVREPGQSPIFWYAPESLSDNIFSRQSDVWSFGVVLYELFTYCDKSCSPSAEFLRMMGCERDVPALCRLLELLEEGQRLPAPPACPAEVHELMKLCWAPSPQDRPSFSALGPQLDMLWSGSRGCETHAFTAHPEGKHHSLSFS

[3] = target: Non-receptor tyrosine-protein kinase TYK2 (Homo sapiens, UniProt P29597); experiment: Inhibition of recombinant TYK2 (unknown origin) by scintillation counting method
[4] = Antiproliferative activity against human SET2 cells incubated for 72 hrs by [3H] thymidine incorporation assay; type: functional, cell-based; settings: SET-2
[5] = target: Tyrosine-protein kinase JAK2 (Homo sapiens, UniProt O60674); experiment: Inhibition of recombinant JAK2 (unknown origin) using 5-FAM-KKKKEEIYFFFG-OH substrate and ATP incubated for 180 mins by […] method
Liver microsome = experiment: Drug metabolism in human liver microsomes assessed as thiourea formation at 10 uM in presence of NADPH by HPLC/UV/MS method; type: ADME
hERG = hERG (Homo sapiens, UniProt Q12809); experiment: Inhibition of human ERG channel at 30 uM
Chain of hERG (Q12809 whole entry): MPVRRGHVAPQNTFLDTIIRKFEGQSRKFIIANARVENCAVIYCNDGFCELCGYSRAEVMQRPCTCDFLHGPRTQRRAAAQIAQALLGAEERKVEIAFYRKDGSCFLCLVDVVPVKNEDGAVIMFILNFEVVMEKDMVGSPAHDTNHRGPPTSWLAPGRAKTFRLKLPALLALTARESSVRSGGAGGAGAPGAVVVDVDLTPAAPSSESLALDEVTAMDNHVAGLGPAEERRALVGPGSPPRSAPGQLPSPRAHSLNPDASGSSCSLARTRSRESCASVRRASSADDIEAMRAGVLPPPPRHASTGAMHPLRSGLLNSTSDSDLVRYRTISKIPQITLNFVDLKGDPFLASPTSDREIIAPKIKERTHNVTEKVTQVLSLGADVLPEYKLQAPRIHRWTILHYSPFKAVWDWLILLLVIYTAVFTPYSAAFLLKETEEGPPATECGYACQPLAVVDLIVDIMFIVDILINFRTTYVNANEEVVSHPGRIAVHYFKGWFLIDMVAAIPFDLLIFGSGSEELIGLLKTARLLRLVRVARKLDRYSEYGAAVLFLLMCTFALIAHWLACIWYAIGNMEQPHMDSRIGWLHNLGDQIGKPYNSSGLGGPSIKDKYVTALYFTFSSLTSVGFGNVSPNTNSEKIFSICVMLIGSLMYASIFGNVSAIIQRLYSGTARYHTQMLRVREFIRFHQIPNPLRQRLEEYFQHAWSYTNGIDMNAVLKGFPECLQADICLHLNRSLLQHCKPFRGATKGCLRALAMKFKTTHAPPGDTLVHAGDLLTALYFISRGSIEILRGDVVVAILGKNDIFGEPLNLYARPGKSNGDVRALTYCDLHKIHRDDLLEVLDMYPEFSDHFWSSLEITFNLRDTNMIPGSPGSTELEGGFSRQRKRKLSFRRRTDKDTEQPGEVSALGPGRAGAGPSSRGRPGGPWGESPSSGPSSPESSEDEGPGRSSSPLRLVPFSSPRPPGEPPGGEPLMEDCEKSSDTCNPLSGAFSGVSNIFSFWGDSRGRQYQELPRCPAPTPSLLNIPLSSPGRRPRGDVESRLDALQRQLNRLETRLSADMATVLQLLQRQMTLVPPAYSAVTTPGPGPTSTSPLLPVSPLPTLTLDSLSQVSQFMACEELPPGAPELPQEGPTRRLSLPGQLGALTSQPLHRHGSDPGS

Chain of Tyrosine-protein kinase JAK2 (O60674 whole entry): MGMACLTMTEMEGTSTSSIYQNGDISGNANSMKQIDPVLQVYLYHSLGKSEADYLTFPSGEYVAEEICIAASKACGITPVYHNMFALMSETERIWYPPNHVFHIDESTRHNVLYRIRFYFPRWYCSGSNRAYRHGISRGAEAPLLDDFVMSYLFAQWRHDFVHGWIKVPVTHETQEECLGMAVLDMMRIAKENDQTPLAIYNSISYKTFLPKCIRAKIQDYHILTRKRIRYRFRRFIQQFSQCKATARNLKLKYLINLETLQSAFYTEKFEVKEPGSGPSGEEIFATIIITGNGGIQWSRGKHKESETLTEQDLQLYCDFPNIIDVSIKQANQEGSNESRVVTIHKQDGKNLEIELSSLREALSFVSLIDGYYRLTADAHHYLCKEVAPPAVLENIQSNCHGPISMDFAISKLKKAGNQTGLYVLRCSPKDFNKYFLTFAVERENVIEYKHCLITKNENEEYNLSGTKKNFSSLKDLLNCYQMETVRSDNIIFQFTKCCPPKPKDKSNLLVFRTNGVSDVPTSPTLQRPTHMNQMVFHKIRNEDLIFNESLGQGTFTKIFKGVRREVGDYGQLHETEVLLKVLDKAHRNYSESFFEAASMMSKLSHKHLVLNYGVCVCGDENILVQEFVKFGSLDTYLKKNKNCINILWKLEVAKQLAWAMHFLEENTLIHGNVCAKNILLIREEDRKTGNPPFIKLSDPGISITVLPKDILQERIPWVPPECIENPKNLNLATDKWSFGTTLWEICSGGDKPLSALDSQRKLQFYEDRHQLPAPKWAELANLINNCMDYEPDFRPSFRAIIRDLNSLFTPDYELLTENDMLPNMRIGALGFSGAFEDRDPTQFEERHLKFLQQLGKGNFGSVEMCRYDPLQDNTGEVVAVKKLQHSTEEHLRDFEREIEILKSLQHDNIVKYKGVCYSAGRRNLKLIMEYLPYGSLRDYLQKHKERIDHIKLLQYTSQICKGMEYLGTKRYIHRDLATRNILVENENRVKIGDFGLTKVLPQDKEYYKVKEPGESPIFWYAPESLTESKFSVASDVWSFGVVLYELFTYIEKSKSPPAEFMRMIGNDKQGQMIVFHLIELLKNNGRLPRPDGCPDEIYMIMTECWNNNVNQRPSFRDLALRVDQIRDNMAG
Chain of Tyrosine-protein kinase JAK1 (P23458 whole entry): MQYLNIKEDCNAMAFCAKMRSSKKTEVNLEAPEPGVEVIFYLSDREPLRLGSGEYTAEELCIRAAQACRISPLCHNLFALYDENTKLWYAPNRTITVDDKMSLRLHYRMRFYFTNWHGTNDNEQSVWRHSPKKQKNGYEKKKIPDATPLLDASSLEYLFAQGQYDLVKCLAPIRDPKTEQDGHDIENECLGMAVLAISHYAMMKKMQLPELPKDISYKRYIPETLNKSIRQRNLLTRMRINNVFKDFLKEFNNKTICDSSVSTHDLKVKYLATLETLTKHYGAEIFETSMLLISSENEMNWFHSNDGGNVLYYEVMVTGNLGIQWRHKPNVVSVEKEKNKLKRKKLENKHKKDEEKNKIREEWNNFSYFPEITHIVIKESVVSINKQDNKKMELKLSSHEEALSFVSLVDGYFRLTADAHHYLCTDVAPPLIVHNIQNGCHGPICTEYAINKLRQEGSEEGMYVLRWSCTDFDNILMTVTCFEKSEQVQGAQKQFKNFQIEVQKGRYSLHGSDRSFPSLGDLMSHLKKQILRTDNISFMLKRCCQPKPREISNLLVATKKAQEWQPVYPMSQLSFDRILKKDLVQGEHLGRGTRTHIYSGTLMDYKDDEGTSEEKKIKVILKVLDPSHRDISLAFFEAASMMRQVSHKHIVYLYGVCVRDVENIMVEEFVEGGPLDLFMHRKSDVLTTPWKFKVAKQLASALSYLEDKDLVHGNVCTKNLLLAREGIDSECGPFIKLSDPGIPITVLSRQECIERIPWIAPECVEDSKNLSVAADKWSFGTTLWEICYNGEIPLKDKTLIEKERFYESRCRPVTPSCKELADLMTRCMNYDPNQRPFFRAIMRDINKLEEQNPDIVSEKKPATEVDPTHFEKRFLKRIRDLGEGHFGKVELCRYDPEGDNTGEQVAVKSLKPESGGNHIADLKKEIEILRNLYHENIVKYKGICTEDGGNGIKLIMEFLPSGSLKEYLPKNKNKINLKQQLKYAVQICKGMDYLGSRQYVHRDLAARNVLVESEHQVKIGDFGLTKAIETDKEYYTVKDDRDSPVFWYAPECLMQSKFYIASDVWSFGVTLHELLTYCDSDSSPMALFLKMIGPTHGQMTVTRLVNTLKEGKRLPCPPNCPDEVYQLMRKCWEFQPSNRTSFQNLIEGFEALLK
Chain of Non-receptor tyrosine-protein kinase TYK2 (P29597 whole entry): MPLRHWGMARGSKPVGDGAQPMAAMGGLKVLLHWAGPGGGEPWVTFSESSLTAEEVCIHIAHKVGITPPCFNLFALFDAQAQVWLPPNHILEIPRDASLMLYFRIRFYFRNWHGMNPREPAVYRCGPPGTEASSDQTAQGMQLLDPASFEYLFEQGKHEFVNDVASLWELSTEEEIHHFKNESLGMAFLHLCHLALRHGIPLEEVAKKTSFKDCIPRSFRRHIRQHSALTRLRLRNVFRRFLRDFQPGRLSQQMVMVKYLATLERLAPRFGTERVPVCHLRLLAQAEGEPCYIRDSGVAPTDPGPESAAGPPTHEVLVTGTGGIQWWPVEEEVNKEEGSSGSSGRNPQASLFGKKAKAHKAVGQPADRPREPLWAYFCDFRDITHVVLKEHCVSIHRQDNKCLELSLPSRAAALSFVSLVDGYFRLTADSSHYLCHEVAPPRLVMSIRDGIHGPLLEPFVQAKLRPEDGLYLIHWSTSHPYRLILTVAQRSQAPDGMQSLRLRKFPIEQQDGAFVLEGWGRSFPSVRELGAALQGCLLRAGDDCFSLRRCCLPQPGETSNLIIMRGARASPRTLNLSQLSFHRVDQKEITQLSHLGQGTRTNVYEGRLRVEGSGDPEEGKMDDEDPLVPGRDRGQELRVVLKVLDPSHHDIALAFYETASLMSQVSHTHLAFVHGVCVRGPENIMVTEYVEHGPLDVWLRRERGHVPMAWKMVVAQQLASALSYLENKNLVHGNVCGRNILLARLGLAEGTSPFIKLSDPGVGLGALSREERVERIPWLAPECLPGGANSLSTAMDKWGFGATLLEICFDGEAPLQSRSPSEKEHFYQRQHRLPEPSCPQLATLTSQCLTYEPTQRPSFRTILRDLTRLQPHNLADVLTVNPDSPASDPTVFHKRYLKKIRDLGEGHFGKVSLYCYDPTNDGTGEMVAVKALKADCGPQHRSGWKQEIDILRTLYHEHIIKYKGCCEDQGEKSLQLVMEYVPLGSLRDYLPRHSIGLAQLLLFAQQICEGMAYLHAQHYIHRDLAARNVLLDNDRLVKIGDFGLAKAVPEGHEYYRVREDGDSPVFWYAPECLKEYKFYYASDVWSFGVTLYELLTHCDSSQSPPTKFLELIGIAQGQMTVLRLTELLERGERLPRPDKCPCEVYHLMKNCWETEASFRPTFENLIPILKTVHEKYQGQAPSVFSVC

Row | SMILES | IC50 [1] | IC50 [2] | IC50 [3] | IC50 [4] | IC50 [5] | Drug metabolism (Liver microsome) | inhibition at 30 µM (hERG)
1 | CCn1c(C(=O)N(C2CC2)C2CC2)cc2c3c(ncn3C)c(Nc3cc(C)nn3C)nc21 | 540 nM | 5000 nM | 2300 nM | > 2000 nM | 230 nM |  | 
2 | CCn1c(C(=O)N(C2CC2)C2CC2)cc2c3c(ncn3C)c(Nc3nc(C(=O)NC)c(C)s3)nc21 | 22 nM | 49 nM |  | 100 nM | 3.1 nM | metabolite_detected | 
3 | CCc1nc(Nc2nc3c(cc(C(=O)N(C4CC4)C4CC4)n3CC)c3c2ncn3C)sc1C | 250 nM | 460 nM |  | 92 nM | 1.4 nM |  | 
4 | CCn1c(C(=O)N(C2CC2)C2CC2)cc2c3c(ncn3C)c(Nc3nc(C)c(C(=O)N4CCS(=O)(=O)CC4)s3)nc21 | 48 nM | 31 nM |  | 330 nM | 0.7 nM |  | 
5 | CCn1nc(Nc2nc3c(cc(C(=O)N(C4CC4)C4CC4)n3CC)c3c2ncn3C)cc1C | 330 nM | 210 nM | 220 nM | 55 nM |  |  | 75%
6 | CCn1c(C(=O)N(C2CC2)C2CC2)cc2c3c(ncn3C)c(Nc3nc(C)n(C)n3)nc21 | 6000 nM | 3800 nM |  | 1300 nM | 33 nM |  | 
7 | CCn1c(C(=O)N(C2CC2)C2CC2)cc2c3c(ncn3C)c(Nc3nc(C)c(S(C)(=O)=O)s3)nc21 | 40 nM | 52 nM |  | 51 nM |  | metabolite_detected | 
8 | CCn1c(C(=O)N(C2CC2)C2CC2)cc2c3c(ncn3C)c(Nc3nc(C)c(C(=O)NC)s3)nc21 | 19 nM | 19 nM |  | 120 nM | 0.9 nM | metabolite_detected | 
9 | CCn1c(C(=O)N(C2CC2)C2CC2)cc2c3c(ncn3C)c(Nc3cc(C)[nH]n3)nc21 | 16 nM | 87 nM | 1.9 nM | 53 nM | 1.2 nM |  | 
